Laboratory results published in publication PMC11879040, “Advancing systemic toxicity risk assessment: Evaluation of a NAM-based toolbox approach” (Toxicological Sciences, 2024).
Values after ≈ are worked out from the molar mass of the structure shown. Like-named read-outs stand apart in the source and are kept apart here.

Legend:
[1] = target: Voltage-dependent L-type Ca2+ channel (dihydropyridine site), CACNA1C (r) (Rattus norvegicus, UniProt P22002); format: binding
[2] = system: Potassium Voltage-Gated Channel Kv non-selective, KCNQ1 (r); experiment: IPP KCNQ1 binding (antagonist radioligand); parameters: species or system rat; conditions: control α-dendrotoxin
[3] = system: Gamma-aminobutyric acid receptor subunit alpha-1 BZD site, GABRA1A (r); format: binding, rat
[4] = system: Sodium channel protein type 5 subunit alpha (site 2), SCN5A (r); format: binding, rat
[5] = target: T1, Adenosine receptor A2a, ADORA2A (h) (Homo sapiens, UniProt P29274); experiment: IPP ADORA2A binding (agonist radioligand); conditions: control NECA
T1 construct: purchased Eurofins Cerep (SafetyScreen44-based IPP panel)
T1 sequence (P29274 whole entry): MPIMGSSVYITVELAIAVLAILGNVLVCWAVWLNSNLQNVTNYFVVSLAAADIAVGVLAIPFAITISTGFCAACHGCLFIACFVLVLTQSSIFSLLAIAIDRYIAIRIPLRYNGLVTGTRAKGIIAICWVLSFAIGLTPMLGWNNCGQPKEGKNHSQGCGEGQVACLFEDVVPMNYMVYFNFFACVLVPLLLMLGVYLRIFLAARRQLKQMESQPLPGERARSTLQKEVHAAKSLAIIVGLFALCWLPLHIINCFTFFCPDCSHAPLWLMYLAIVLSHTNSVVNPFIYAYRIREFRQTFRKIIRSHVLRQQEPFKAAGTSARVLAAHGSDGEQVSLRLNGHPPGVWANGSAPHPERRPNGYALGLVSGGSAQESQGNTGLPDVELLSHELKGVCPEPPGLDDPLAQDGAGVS

[6] = system: Thyroid hormone receptor alpha, THRA (h); experiment: IPP THRA coactivator recruitment (agonist); format: biochemical, human; conditions: agonist, T3
Tubulin (r) = experiment: IPP Tubulin binding; parameters: species or system rat; conditions: ligand/control Colchicine
HepG2 cells [7] = experiment: Cell stress panel (CSP), 24 h, 8 concentrations, BIFROST global PoD; format: cell-based; conditions: for pod_cell_stress PoD: HepG2, cell stress panel PoD
Protocol: Compounds were tested using the previously developed cell stress panel ([Hatherell et al. 2020]) and the expanded biomarker panel outlined in Middleton et al. HepG2 cells were treated with all compounds for 24 h across 8 concentrations prior to biomarker analysis. The same plate layout and number of replicates (3 biological and 2 technical) were used as previously for each assay within the panel.

HepG2 cells [8] = experiment: High-throughput transcriptomics (HTTr, TempO-Seq), HepG2, 24 h; format: cell-based, human; conditions: HepG2; for pod_httr_bifrost PoD: HTTr BIFROST PoD; for podl_path_minbmd PoD: HTTr minimum pathway BMD(L)
Protocol: (§1) HepG2, HepaRG, and MCF7 cells were treated with each compound for 24 h across a dose range of 7 concentrations and lysed using TempO-Seq lysis buffer (BioSpyder Technologies, proprietary kit, see [Middleton et al. 2022] for method details). Sequencing was performed using TempO-Seq (BioClavis) version 2 of the human whole transcriptome panel and analyzed as described previously in Middleton et al.

HepaRG cells = experiment: High-throughput transcriptomics (HTTr, TempO-Seq), HepaRG, 24 h; format: cell-based, human; conditions: HepaRG; for pod_httr_bifrost PoD: HTTr BIFROST PoD; for podl_path_minbmd PoD: HTTr minimum pathway BMD(L)
Protocol: as §1

MCF7 cells = experiment: High-throughput transcriptomics (HTTr, TempO-Seq), MCF7, 24 h; format: cell-based, human; conditions: MCF-7; for pod_httr_bifrost PoD: HTTr BIFROST PoD; for podl_path_minbmd PoD: HTTr minimum pathway BMD(L)
Protocol: as §1

[9] = system: Glutamate receptor ionotropic NMDA 1 non-selective, GRIN1 (r)
[10] = human
[11] = human; remark: listed apart in the source
physchem [12] = conditions: pH 5.22, water
rat = conditions: cited from earlier work; for PoD (NOAEL): rat, ref ToxRefDB/Paul-Friedman et al. (2020)/regulatory opinions
[13] = cited from earlier work
[14] = target: T2, Estrogen receptor, ER1 (h) (Homo sapiens, UniProt P03372); experiment: IPP ER1 coactivator recruitment (agonist); format: biochemical; conditions: estriol
T2 construct: purchased Eurofins Cerep (SafetyScreen44-based IPP panel)
T2 sequence (P03372 1-595): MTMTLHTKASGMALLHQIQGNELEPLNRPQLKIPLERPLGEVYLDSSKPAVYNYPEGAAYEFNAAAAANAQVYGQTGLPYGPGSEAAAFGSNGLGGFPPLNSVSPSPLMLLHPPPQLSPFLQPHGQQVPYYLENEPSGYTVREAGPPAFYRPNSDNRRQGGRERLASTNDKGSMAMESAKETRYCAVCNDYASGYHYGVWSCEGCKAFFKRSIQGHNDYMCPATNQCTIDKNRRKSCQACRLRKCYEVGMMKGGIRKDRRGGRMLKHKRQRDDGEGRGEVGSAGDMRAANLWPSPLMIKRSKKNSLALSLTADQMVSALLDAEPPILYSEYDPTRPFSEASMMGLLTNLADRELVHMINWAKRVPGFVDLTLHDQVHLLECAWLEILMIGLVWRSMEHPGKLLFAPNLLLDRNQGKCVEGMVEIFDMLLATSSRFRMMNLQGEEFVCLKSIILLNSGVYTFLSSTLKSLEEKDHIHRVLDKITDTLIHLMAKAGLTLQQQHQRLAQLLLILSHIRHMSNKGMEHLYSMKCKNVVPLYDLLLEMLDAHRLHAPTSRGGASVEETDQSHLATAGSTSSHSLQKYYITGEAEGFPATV

[15] = target: T2, Estrogen receptor, ER1 (h); experiment: IPP ER1 coactivator recruitment (antagonist); format: biochemical; conditions: estriol
[16] = target: Potassium voltage-gated channel subfamily H member 2 hERG, KCNH2 (h) (Homo sapiens, UniProt Q12809)
Potassium voltage-gated channel subfamily H member 2 hERG, KCNH2 (h), sequence (Q12809 whole entry): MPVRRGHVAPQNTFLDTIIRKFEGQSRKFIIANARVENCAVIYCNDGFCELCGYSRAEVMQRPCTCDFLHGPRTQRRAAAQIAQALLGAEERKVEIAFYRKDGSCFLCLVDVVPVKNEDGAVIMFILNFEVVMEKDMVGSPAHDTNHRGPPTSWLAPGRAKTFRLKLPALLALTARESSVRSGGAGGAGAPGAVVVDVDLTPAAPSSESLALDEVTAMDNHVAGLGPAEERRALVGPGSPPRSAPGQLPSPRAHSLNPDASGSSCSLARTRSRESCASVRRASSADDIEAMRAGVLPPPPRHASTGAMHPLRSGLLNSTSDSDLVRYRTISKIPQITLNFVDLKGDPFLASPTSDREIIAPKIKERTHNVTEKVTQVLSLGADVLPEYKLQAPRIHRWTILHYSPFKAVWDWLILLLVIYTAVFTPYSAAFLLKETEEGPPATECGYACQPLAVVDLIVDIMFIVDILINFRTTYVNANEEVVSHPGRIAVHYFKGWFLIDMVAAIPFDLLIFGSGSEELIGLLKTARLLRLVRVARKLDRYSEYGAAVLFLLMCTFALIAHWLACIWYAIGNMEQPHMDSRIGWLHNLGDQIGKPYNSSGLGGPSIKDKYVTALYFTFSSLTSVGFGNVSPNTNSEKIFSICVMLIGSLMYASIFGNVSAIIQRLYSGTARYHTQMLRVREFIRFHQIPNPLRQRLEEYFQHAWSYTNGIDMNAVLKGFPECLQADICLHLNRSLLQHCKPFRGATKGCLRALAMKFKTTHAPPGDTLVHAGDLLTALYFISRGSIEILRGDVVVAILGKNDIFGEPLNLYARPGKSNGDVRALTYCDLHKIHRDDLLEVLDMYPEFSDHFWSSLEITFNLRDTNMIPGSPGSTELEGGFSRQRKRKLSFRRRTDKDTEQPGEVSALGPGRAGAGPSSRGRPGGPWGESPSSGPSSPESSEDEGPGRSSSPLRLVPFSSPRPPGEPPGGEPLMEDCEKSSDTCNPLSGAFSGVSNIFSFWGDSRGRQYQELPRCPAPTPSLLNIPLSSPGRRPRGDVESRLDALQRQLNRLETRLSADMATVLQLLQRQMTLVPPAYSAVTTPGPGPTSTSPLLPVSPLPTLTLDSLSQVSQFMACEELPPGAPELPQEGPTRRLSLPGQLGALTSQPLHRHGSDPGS

physchem [17] = experiment: physchem
[18] = PBK input, ref [11], cited from earlier work
[19] = Assignment of risk classifications to benchmark chemical-exposure scenarios; conditions: for risk: Oral, from table S1
[20] = system: 63 targets with known safety liabilities; experiment: In vitro pharmacological profiling (IPP) panel, screening at 10 or 100 µM and dose response, minimum IC50/AC50; format: biochemical; conditions: lowest AC50 across IPP panel (systemic targets); cell_type -; read-out: ipp_lowest_ac50_systemic PoD
dog = conditions: 52 weeks, ref ToxRefDB/Paul-Friedman et al. (2020)/regulatory opinions; cited from earlier work
[21] = target: 5-hydroxytryptamine receptor 2B, HTR2B (h) (Homo sapiens, UniProt P41595); experiment: biochemical
5-hydroxytryptamine receptor 2B, HTR2B (h), sequence (P41595 whole entry): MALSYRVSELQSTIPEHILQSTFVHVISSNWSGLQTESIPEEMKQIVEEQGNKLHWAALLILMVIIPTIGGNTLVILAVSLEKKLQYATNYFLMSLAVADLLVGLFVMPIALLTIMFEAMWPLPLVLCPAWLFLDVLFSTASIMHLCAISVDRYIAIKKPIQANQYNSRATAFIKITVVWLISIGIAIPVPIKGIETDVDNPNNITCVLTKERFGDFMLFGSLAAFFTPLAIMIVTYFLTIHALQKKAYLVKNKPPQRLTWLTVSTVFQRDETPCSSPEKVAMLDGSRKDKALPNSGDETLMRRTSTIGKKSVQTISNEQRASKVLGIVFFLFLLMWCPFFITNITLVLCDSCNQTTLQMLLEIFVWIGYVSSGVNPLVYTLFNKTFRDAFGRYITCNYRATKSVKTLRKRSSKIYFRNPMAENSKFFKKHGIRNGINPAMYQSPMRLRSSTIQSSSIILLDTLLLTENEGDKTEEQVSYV

[22] = IV bolus 100 mg solution, 20 renal transplant patients, validation, ref Lin et al. 1980
[23] = IV bolus 100 mg solution, uremic patients, validation, ref Odlind et al. 1986
[24] = Oral tablet 100 mg, fasted, uremic patients, calibration, ref Odlind et al. 1986
[25] = 100 uM, * denotes assay interference (2-Amino-6-chloro-4-nitrophenol, HC Red 3)

Voltage-dependent L-type Ca2+ channel (dihydropyridine site), CACNA1C (r), sequence (P22002 whole entry): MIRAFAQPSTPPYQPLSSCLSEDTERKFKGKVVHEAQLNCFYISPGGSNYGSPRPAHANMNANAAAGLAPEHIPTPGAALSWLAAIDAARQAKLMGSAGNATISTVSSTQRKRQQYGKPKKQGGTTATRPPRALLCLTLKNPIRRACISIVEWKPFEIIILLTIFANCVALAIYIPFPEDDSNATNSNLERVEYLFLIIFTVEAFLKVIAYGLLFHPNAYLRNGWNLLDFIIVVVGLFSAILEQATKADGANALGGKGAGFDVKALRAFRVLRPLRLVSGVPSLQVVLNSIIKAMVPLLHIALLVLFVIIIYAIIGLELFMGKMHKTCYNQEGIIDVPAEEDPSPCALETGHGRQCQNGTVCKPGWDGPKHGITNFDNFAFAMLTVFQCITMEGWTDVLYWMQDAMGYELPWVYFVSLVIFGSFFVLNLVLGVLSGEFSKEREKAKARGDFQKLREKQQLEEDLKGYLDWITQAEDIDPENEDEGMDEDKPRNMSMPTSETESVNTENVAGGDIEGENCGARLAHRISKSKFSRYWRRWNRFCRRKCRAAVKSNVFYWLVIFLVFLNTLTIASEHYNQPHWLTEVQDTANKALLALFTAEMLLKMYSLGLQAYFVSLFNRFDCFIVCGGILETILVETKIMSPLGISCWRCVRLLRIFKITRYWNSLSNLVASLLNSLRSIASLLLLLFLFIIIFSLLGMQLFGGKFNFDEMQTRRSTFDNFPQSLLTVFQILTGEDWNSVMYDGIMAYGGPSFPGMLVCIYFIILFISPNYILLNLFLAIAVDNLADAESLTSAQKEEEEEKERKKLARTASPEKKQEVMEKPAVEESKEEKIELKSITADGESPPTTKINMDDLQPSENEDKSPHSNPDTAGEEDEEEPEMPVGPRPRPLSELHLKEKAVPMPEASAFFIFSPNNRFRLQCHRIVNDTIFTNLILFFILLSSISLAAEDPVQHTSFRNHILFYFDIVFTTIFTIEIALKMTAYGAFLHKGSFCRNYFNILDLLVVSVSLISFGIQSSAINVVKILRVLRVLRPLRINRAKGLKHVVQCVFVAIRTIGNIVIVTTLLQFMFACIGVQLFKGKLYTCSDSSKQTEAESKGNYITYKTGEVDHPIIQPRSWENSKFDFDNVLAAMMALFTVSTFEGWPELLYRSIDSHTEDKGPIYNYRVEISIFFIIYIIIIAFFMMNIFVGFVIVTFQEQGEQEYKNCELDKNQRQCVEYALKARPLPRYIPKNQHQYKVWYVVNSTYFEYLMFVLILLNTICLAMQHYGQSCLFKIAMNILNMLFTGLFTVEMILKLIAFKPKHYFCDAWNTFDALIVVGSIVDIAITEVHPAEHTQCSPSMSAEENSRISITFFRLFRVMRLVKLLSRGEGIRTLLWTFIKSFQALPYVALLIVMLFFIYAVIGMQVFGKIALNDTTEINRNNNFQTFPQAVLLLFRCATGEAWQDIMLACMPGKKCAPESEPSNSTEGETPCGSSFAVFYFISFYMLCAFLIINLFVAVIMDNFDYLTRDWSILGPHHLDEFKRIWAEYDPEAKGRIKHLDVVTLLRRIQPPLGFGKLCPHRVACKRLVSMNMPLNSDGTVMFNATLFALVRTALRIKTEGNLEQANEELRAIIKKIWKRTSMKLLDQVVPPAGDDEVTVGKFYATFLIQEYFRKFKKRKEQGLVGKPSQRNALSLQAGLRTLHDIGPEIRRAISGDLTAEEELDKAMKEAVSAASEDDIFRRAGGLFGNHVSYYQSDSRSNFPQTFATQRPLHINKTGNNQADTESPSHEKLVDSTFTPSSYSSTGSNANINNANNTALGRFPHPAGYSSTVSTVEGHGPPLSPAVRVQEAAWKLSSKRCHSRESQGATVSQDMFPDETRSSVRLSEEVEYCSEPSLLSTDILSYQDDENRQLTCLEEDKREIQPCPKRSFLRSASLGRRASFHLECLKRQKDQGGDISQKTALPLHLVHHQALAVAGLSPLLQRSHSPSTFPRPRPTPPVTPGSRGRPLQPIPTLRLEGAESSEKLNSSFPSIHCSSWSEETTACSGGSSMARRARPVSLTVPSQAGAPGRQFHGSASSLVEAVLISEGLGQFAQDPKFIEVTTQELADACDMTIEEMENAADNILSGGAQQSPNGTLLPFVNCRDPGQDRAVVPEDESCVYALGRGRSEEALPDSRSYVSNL

## Cn1cnc([N+](=O)[O-])c1Sc1ncnc2nc[nH]c12 [Azathioprine, 6-[(1-Methyl-4-nitro-1H-imidazol-5-yl)sulfanyl]-7H-purine]
[1]
  Specific binding: -9.0%
[2]; IPP screening at 10 uM
  Specific binding: 1.0%
[3]
  Specific binding: 17.2%
[4]
  Specific binding: -8.7%
[5]; IPP screening at 10 uM
  Specific binding: 38.3%
[6]; 10 uM
  IPP screening %, Coactivator recruitment: 3.0%
Tubulin (r); 10 uM
  IPP screening %, Specific binding: 6.0%
HepG2 cells [7]
  Bioactivity Observations: cell stress panel: The leading PoD is extrapolated below the lowest dose tested in the CSP
  pod_cell_stress PoD: 3.96e-05 µM
HepG2 cells [8]
  pod_httr_bifrost PoD: 0.01764 µM
  podl_path_minbmd PoD: 0.1634 µM
HepaRG cells
  pod_httr_bifrost PoD: 0.8426 µM
  podl_path_minbmd PoD: 3.742 µM
MCF7 cells
  pod_httr_bifrost PoD: 0.1265 µM
  podl_path_minbmd PoD: 0.2237 µM
[9]
  Specific binding: 4.2%
[10]
  risk: 1
[11]
  Intrinsic Liver Clearance: 4323.84 L/h
Physchem [12]
  solubility: 231 µg/mL (≈ 833 µM)
rat; 28 days, haematological changes
  PoD (NOAEL): 3 mg/kg bw/day
[13]; [22]
  Reported AUC0-t: 430 ng·h/mL
  Reported cmax: 0.9163 µg/mL
  Reported tmax: 0 min
[13]; [23]
  Reported AUC0-t: 1032.5 ng·h/mL
  Reported cmax: 0.7498 µg/mL
  Reported tmax: 7.524 min
[13]; [24]
  Reported AUC0-t: 100 ng·h/mL
  Reported cmax: 0.0478 µg/mL
  Reported tmax: 32.87 min

## CC(C)[C@H](N)C(=O)O [L-valine, L-Valine]
[2]; IPP screening at 100 uM
  Specific binding: 15.0%
[3]; IPP screening at 100 uM, control diazepam
  Specific binding: 1.9%
[4]; IPP screening at 100 uM, control veratridine
  Specific binding: 12.2%
[5]; IPP screening at 100 uM
  Specific binding: -4.2%
[14]; [25]
  IPP screening %, Coactivator recruitment: 0.0%
[15]; [25]
  IPP screening %, Coactivator recruitment: -2.0%
[6]; [25]
  IPP screening %, Coactivator recruitment: 2.0%
Tubulin (r); 100 uM
  IPP screening %, Specific binding: 2.0%
HepG2 cells [7]
  pod_cell_stress PoD: 39.7854 µM
HepG2 cells [8]
  pod_httr_bifrost PoD: 316.528 µM
  podl_path_minbmd PoD: 625 µM
HepaRG cells
  pod_httr_bifrost PoD: 162.177 µM
  podl_path_minbmd PoD: 351.712 µM
MCF7 cells
  pod_httr_bifrost PoD: 26.9475 µM
  podl_path_minbmd PoD: 43.6766 µM
[9]; IPP screening at 100 uM, control CGS 19755
  Specific binding: 0.4%
[16]; human
  IPP screening %, Specific binding: -3.8%
Physchem [17]
  logP: -2.21
rat; repeat dose
  PoD (NOAEL): 666 mg/kg bw/day
[18]; level L2
  pKa Value ACID: 2.3
[18]; levels L2/L3
  pKa Value BASE: 9.55
[19]; Oral 26 mg/kg bw/day
  Risk Classification: Low risk
[19]; Oral 4000 mg/day
  Risk Classification: Low risk
[19]; 26 mg/kg mean requirements, Tablet, Exp1
  risk: 0
[19]; Dietary 4000 mg/day, Food & Drink, Exp2
  risk: 0

## CC1(C)C(C=C(Cl)Cl)C1C(=O)OC(C#N)c1cccc(Oc2ccccc2)c1 (stereo not drawn) [Cypermethrin, Cyano(3-phenoxyphenyl)methyl 3-(2,2-dichloroethenyl)-2,2-dimethylcyclopropane-1-carboxylate]
[2]; IPP screening at 10 uM
  Specific binding: 0.9%
[3]; IPP screening at 10 uM, control diazepam
  Specific binding: 5.5%
[4]; IPP screening at 10 uM, control veratridine
  Specific binding: -112.7%
[5]; IPP screening at 10 uM
  Specific binding: 0.1%
[14]; 10 uM
  IPP screening %, Coactivator recruitment: 0.0%
[15]; 10 uM
  IPP screening %, Coactivator recruitment: 0.0%
[6]; 10 uM
  IPP screening %, Coactivator recruitment: 0.0%
Tubulin (r); 10 uM
  IPP screening %, Specific binding: 8.0%
HepG2 cells [7]
  pod_cell_stress PoD: 7.881 µM
HepG2 cells [8]
  pod_httr_bifrost PoD: 2.669 µM
  podl_path_minbmd PoD: 2.638 µM
HepaRG cells
  pod_httr_bifrost PoD: 4.402 µM
  podl_path_minbmd PoD: 35.2754 µM
MCF7 cells
  pod_httr_bifrost PoD: 8.9686 µM
  podl_path_minbmd PoD: 25.4106 µM
[20]
  AC50: 490 nM
[9]; IPP screening at 10 uM, control CGS 19755
  Specific binding: 11.4%
[16]; 10 uM, [3H] Dofetilide, control Terfenadine
  IPP screening %, Specific binding: 22.7%
rat; rat chronic study, route of administration not reported, ref not given
  Lowest NOAEL: Lowest NOAEL is 0.5 mg/kg from a rat chronic study, but the route of administration isn't reported. 1 mg/kg/day is NOAEL from 52 week dog study
dog
  PoD (NOAEL): 1 mg/kg bw/day
[21]
  IC50: > 570 nM
